Assay [1] has as its target T1, PfENT1 W53A (Plasmodium falciparum, UniProt Q8IDM6, W53A).
T1 construct: expressed in transfected cells; host or cells: S. cerevisiae BY4741, FUI1 deleted, PfENT1 mutant knock-in under the TEF1 promoter
The assay is described as follows: Inosine uptake assay, yeast expressing PfENT1 W53A. The note with it: Fig. 3d, construct W53A. The assay is classed as cell-based. The source says: Codon-optimized PfENT1 (for expression in yeast) was synthesized by Sangon Biotech. The carboxyl terminus of PfENT1 was HA-tagged through PCR. The TEF1p promoter and PGK1t terminator were amplified from BY4741 genomic DNA. Overlap PCR was applied to generate the gene overexpression cassette of PfENT1 (TEF1p promoter-PfENT1-PGK1t terminator). The two 600-bp homologous arms corresponding to the upstream and downstream regions of the FUI1 gene were amplified from BY4741 genomic DNA. The gene cassette of the ‘TEF1p promoter-PfENT1-PGK1t terminator’ together with the two homologous arms was cloned into the PUC19 plasmid through Gibson assembly, generating the final plasmid PUC19: PfENT1. PfENT1 mutations were generated using point mutation and verified by Sanger sequencing. The spacer targeting the FUI1 gene (5ʹ-[…]-3ʹ) was cloned into the pCas-BsaI plasmid to generate the pCas-FUI1 plasmid as described previously. […]
Cells were grown overnight in YPD medium to mid-log phase and harvested by centrifugation at 3000 × g for 5 min. […] After washing by vacuum filtration with 2 ml ice-cold 2% glucose, the radioactivity retained on the filter was incubated with 1 mL of ULTIMA GOLD scintillation fluid (Perkin Elmer, 77-15311). Counts were measured using a liquid scintillation analyzer (Perkin Elmer, Tri-Carb 5110TR). […]

Assay [2] deals with T2, PfENT1 mutant D287A (Plasmodium falciparum, UniProt Q8IDM6, D287A).
T2 construct: 10xHis (N); made in house; host or cells: Sf9 insect cells (baculovirus)
T2 sequence (Q8IDM6 1-422 D287A): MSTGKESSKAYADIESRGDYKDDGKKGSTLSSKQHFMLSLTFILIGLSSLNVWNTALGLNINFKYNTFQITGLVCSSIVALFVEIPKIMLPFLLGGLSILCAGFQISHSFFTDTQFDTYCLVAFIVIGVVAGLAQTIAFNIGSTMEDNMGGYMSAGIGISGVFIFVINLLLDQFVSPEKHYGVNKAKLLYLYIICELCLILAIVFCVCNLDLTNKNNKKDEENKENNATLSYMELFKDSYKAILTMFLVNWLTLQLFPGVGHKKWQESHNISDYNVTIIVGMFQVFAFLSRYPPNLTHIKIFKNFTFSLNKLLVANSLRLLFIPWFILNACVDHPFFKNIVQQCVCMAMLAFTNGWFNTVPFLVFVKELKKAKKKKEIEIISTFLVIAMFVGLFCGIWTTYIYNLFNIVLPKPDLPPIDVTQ
The assay is described as follows: ITC binding to PfENT1 mutant D287A. The note with it: Fig. 3c. On the procedure: For the in vitro binding assay, Sf9 cells were solubilized in lysis buffer containing 2% (w/v) n-dodecyl-β-D-maltopyranoside (DDM, Anatrace) and protease inhibitor cocktail (0.8 μM aprotinin, 2 μM pepstatin, and 5 μg/ml leupeptin) at 4 °C for 2 h. The soluble supernatant was collected via centrifugation and incubated with Ni-NTA resin (QIAGEN) at 4 °C for 1 h. The resin was washed and eluted using lysis buffer containing 0.05% (w/v) DDM and 30 mM/300 mM imidazole. The protein was further purified by size-exclusion chromatography (Superdex 200 Increase 10/300; GE Healthcare) in buffer containing 25 mM MES (pH 6.0), 150 mM NaCl, and 0.05% (w/v) DDM. The peak fractions were pooled and concentrated to 10~50 μM for the nucleoside-binding assay.
The binding affinity between wild-type and mutant PfENT1 with nucleosides and GSK4 was measured using a Micro-Cal ITC200 (Malvern). All proteins were prepared in 25 mM MES (pH 6.0), 150 mM NaCl, and 0.05% (w/v) DDM. Nucleosides (5~10 mM) and GSK4 (100-200 μM) dissolved in the same buffer were titrated against 20–50 μM PfENT1 proteins at 25 °C. PEAQ-ITC analysis software (MicroCal) was employed to analyze the data. All titrations were repeated three times.

SMILES strings stand for the structures.

T1 sequence (Q8IDM6 whole entry W53A): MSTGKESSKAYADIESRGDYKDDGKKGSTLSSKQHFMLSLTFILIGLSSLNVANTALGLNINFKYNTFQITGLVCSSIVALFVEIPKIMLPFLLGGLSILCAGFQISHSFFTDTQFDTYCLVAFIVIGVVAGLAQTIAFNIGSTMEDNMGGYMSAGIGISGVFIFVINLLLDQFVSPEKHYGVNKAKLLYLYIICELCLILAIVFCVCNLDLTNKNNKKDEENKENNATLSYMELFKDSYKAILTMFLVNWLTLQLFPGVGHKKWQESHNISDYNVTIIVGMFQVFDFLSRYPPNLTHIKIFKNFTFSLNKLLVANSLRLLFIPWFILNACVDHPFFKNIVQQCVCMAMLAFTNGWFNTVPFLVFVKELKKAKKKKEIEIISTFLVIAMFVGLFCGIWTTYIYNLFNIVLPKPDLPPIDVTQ

On to `OC[C@H]1O[C@@H](n2cnc3c(O)ncnc32)[C@H](O)[C@@H]1O` [Inosine, inosine], for which the “Uptake of [3H]-inosine (Percentage of PfENT1 WT)” value in assay [1] is “abolished the transport activity”. Further, the “binding affinity (Kd)” value in assay [2] was “completely lost inosine binding”.
